Assay results taken from patent publication US10443089B2, “Methods of multiplexing DNA sensors and localizing DNA sensor” (NATIONAL CENTRE FOR BIOLOGICAL SCIENCES (NCBS-TIFR), priority 2013, dated 2019).
“Also recorded” adds a separate entry of the source.

Key:
[1] = Comparison of DNA pH sensors with pH sensitive organic dyes and GFP based probes; conditions: for Working regime: pH
[2] = system: scFv-furin expressing IA2.2 cells; experiment: SimpHony of early endosomes and TGN with and without Brefeldin A; type: cell-based, Chinese Hamster; conditions: BFA 20 μg/mL, 10 min
Excerpt: SimpHony is applied on BFA-induced tubules positive for furin marked by I^FuA546/A647 while simultaneously marking transferrin containing endosomes with Tf-I^TfA488/A647. BFA treated cells show tubular extensions emerging from compartments localize near the MTOC (FIG. 18a). Tf-I^TfA488/A647 in these cells occupies the excluded space of I^FuA546/A647 in the region around the MTOC in addition to a few cytoplasmic endosomes (FIG. 19b).
FIG. 19 depicts localization of Tf-I^Tf and I^Fu DNA sensors in compartments after BFA treatment. scFv-Furin expressing IA2.2 cells are pulsed with about 500 nM I^FuA546/647 for 2 hours and chased for 30 min in presence of CHX followed by absence (a) or presence (b) of BFA (about 20 μg/mL) treatment of about 10 min at about 37° C. Cells are pulsed with about 500 nM Tf-I^TfA488/A647 in presence of BFA and CHX to label early endosomes. Arrowheads show MTOC. Scale Bar: 10 μm.
FIG. 22 describes the pH heterogeneity of early endosomes and TGN, pre and post treatment with BFA. IA2.2 cells are pulsed with about 500 nM IFuA546/A647 for about 2 hours and chased for 30 min in presence of about 125 ug/ml CHX followed by absence or presence of BFA (about 20 μg/mL) treatment of about 10 min at about 37° C. Cells are further treated with about 500 nM Tf-ITfA488/A647 in presence of about 20 μg/mL BFA and about 125 ug/ml CHX to label early endosomes.

[3] = system: IA2.2 cells expressing scFv-furin; experiment: SimpHony of early and late endosomes with and without Dynasore; type: cell-based, Chinese Hamster
Method: The DNA sensor of the present disclosure is applied to this system, by marking early endosomes with about 500 nM Tf-I^TfA488/A647 and late endosomes with about 500 nM I^FuA546/A647 in the presence and absence of Dynasore. I^n the absence of Dynasore, early endosomes undergo active fusion and fission; showing an average pH of about 6.05±0.07 (FIG. 17) while the late endosomes show an average pH of about 5.43±0.3.
FIG. 17 depicts Dynasore mediated arrest of endosomal fission. Early/sorting and late endosomes in IA2.2 cells expressing scFv-furin are marked with about 500 nM Tf-I^TfA488/A647 at 37° C. for 10 min. Time lapse images of control cells (−Dy) where no dynasore is added, (+Dy) in presence of about 160 μM dynasore and (W) after dynasore is washed out and incubated for about 10 min at about 37° C. for recovery. Images are acquired with a time interval of about 2 s over 2 min period and compressed to a movie playing at 7 fps.

35 bp dsDNA tag, d(AT)4 = experiment: Competitive ELISA, binding affinity of purified scFv to immobilized dsDNA
Method: The binding affinity of this scFv with the 35 bp DNA duplex is assayed using competitive ELISA that is performed using a fixed amount of immobilized dsDNA (25 pmoles) followed by the addition of a fixed concentration of scFv (200 nM) in the presence of an increasing concentration of unlabeled dsDNA (I^comp, about 10 nM to about 1 μM) in solution.
This experiment is carried out to find strength of binding of clone C1 with DNA. The affinity and specificity of scFv is analyzed by ELISA after purifying the scFv. Streptavidin-coated 96-well plate is incubated with dsDNA epitope used for screening in 5×SSCT (about 75 mM Sodium citrate, about 750 mM NaCl, about 0.05% Tween-20) for about 1.5 hours for immobilization of dsDNA onto the Streptavidin-coated 96-well plate.
For competition experiments, dsDNA immobilized onto Streptavidin-coated 96-well plate is incubated with the mixture of increasing amount of (from 0 to 10 micromoles) of competing nucleic acid, purified scFv (about 200-300 nM) and 1 in 1000 dilution of anti myc-tag antibody for about 1.5 hours at room temperature. […] Bound scFvs are detected by addition of 100 microliters of 2×TMB/H202 and OD at 450 nm is recorded and normalized with respect to the well where no competitor is added. […]

[4] = system: DNA epitopes ssDNA, dsDNA, R1, R2, RM; experiment: ELISA screen of scFv clones for sequence specific binding to DNA epitopes; conditions: epitopes R1, R2, RM of the 35 bp dsDNA; listed as C1
Method: The 35 bp dsDNA is divided into three regions: • (i) One region is composed of 13 bp of the antigen from the 3′ end (known as Region 1 (R1), FIG. 6a, red), • (ii) the second region corresponds to base pairs 16 to 28 from 3′ end (Region 2 (R2), FIG. 6a, green) and • (iii) the third region is an overlap of regions 1 and 2 (Region M (RM), FIG. 6a, blue).
These three duplexes are annealed and then immobilized on three different 96-well plates. scFv supernatant of the same clones is added to the wells and incubated as described earlier. […] Thus, the scFvs corresponding to these clones recognize only the first 8 base pairs of the 35 bp dsDNA i.e., the sequence d(AT)4.
In order to screen for sequence specificity of binding to duplex DNA, each of the selected clones are similarly assayed by ELISA to a set of surface-immobilized DNA scaffolds. These correspond to a single stranded DNA sequence comprising only the biotinylated strand of the 35 bp dsDNA the 35 bp dsDNA duplex (dsDNA), and three shorter duplex regions R1, R2 and RM corresponding to various sections on the 35 bp dsDNA duplex. R1 corresponds to a […] region at the 3′ terminus of the biotinylated ssDNA oligonucleotide, R2 correspond to a 13 bp region abutting R1, while RM corresponded to a 13 bp region overlapping the 5′ end of R1 and the 3′ of R2. […]

O=C1OC2(c3cc(F)c(O)cc3Oc3cc(O)c(F)cc32)c2ccccc21 [Oregon green 488]
pKa [1]: 4.7
Working regime [1]: 4.0-5.0

Fluorescein (FITC)
Working regime [1]: 5-8

C[C@H]1CCC/C=C/[C@@H]2C[C@H](O)C[C@H]2[C@H](O)/C=C/C(=O)O1 [Brefeldin A]
morphology of furin containing compartments [2]: tubulate extensively

O=C(N/N=C/c1ccc(O)c(O)c1)c1cc2ccccc2cc1O [Dynasore]
average pH of early endosomes after wash out ([3]; Dynasore washed out): completely restored
early endosome morphology and dynamics ([3]; presence of 160 μM dynasore): extensive tubulation of the early endosomes as well as their arrested dynamics

B1: clone C1: scFv recombinant antibody from phage display binding dsDNA sequence d(AT)4; SEQ ID No. 16 (protein)
scFv: MAEVQLLESGGGLVQPGGSLRLSCAASGFTFSSYAMSWVRQAPGKGLEWVSTITKRGERTKYADSVKGRFTISRDNSKNTLYLQMNSLRAEDTAVYYCAKSTRAFDYWGQGTLVTVSSGGGGSGGGGSGGGGSTDIQMTQSPSSLSASVGDRVTITCRASQSISSYLNWYQQKPGKAPKLLIYGASYLQSGVPSRFSGSGSGTDFTLTISSLQPEDFATYYCQQTRFSPNTFGQGTKVEIKRAAAHHHHHHGAAEQKPISEEDLNGAAGGD
modifications: scFv Protein Sequence; DNA_BIND (1)..(271)
relative binding constant (35 bp dsDNA tag, d(AT)4; 25 pmoles immobilized dsDNA, 200 nM scFv, competitor I^comp 10 nM to 1 μM): about 1.25×10^7 M^−1
Kd (35 bp dsDNA tag, d(AT)4; 35 bp DNA duplex / d(AT)4): 80 nM
DNA epitope specificity by ELISA [4]: binding to R1 and no other region; also recorded: binds a DNA sequence ATATATAT
